{"source": "paper PMC10852989", "about": "“Combining cisplatin and a STING agonist into one molecule for metalloimmunotherapy of cancer” (National Science Review, 2024)", "key": {"Pan02 tumors [1]": {"tested_on": "Pan02 tumors", "assay": "scRNA-seq of Pan02 tumors", "format": "in vivo, mouse", "conditions": "scRNA-seq at treatment endpoint, versus untreated", "from_the_text": "ScRNA-seq. Tumors were excised from individual mice after treatment using a dissecting microscope and pooled. The tumors were cryopreserved in FBS + 10% DMSO. Samples were subsequently thawed, washed, sorted to isolate living cells and then performed on the 10X Genomics 5’ Chromium v2.0 platform according to the manufacturer’s instructions. Libraries were generated per the manufacturer’s protocol and sequenced on an Illumina HiSeq 2500 with the “rapid run” mode according to the standard 10X Genomics protocol. Data analysis was conducted by Singleron Biotech. Co. Ltd. using Cellranger and R.\nCell type annotation. The cell type identity of each cluster was determined from the expression of canonical markers found in the DEGs using SynEcoSys database. Heatmaps displaying the expression of markers used to identify each cell type were generated by Seurat v3.12 DoHeatmap."}, "PANC-1 cells [2]": {"tested_on": "PANC-1 cells", "assay": "cellular uptake of Pt by ICP-MS, PANC-1", "format": "cell-based, human", "procedure": "Cellular uptake. All incubations were carried out in the dark. After the designated incubation period, the medium was removed, and the cells were harvested with trypsin and rinsed twice with PBS (1×, 20 mM, pH 7.4), followed by digestion and ICP-MS.\nCancer cells were seeded in a 6-well plate at a density of 5×10^5 cells per well. After incubation for 24 h, the cells were treated with each complex for 6 h.\nCancer cells preincubated with metabolic inhibitor (MIs) were also evaluated. These cells were preincubated with 2-deoxy-D-glucose and oligomycin (50 mM and 5 μM, respectively, 1 h) or NH4Cl (50 mM, 1 h) at 37 ℃ followed by incubation with DMEM containing CDDP, I or II at 37 ℃ for 6 h.\nDigestion. Cell pellets were collected by centrifugation and then digested with nitric acid (100 µL) for 2 h at 95 °C, followed by the addition of H2O2 (50 µL) at 95 °C for 0.5 h. HCl (100 µL) was added and kept at 95 °C until the total volume was less than 20 μL. Water was then added to dilute the solution to 1 mL, and the final Pt content was determined by ICP-MS."}, "Pan02 tumors [3]": {"tested_on": "Pan02 tumors", "assay": "in vivo antitumor activity, C57BL/6 mice bearing Pan02 tumors", "parameters": "species or system mouse", "procedure": "In vivo antitumor activity. Female C57BL/6 mice (6–8 weeks old) were subcutaneously implanted with pan02 cells (2 × 10^6) in the right flank. Once the tumor volume reached approximately 60 mm^3, the mice were assigned to 4 groups at random (n = 5–8) and received treatment with PBS, CDDP (10.0 μmol/kg), I (10.0 μmol/kg), or a mixture of CDDP (10.0 μmol/kg) and MSA-2 (10.0 μmol/kg). The mice received 9 treatments. Changes in body weight and tumor volume were recorded. All the experimental procedures utilizing mice were performed in accordance with the Guidelines for Care and Use of Laboratory Animals of Nanjing University and experiments were approved by the Institutional Animal Care and Use Committee of Nanjing University (IACUC-2101001, SL-019-00)."}, "[4]": {"tested_on": "Pan02 tumor tissue immune cells", "assay": "flow cytometric analysis of immune cells in Pan02 tumor tissue", "format": "in vivo, mouse", "conditions": "Pan02 tumors; comparable to CDDP and CDDP + MSA-2 groups", "procedure": "Flow cytometric analysis. To analyze the levels of immune cells in the tumor microenvironment, mice were sacrificed six days after the final treatment. The obtained tumors were cut into pieces and digested in T cell medium. Single-cell suspensions were obtained after filtration through nylon mesh and incubated with various antibodies. FACS tests were carried out on a flow cytometer, and the results were analyzed with NovaExpress. The following monoclonal antibodies (mAbs) were used for flow cytometry: anti-CD3-APC (17A2), anti-CD4-AF700 (RM4-5), anti-CD8-PE (53-6.7), anti-NK1.1-PE/Cy7 (PK136), anti-PD-1-FITC (29F. 1A12), anti-CD69-PE/Cy5 (H1.2F3)."}, "PANC-1 cells [5]": {"tested_on": "PANC-1 cells", "assay": "72 h MTT cytotoxicity, PANC-1", "format": "cell-based, human", "procedure": "(§1) Cytotoxicity. Tumor cells were cultured overnight after inoculation in RPMI-1640 medium or DMEM supplemented with 10% FBS. All cultures were maintained in an incubator in a highly humidified atmosphere of 95% air with 5% CO2 at 37 °C. Growth inhibition was measured with an MTT assay. Briefly, 2800–7000 cells per well in culture medium (100 μL) were plated in 96-well plates (Corning). The cells were treated in triplicate with different concentrations of complexes at 37 ℃ for 72 h. Stock solutions of CDDP and oxoplatin were prepared in PBS, while stock solutions of conjugates I and II and the ligand MSA-2 were prepared in DMSO. The stock solutions were diluted in complete medium (DMSO < 0.5%). An aliquot of MTT solution (40 μL, 2.5 mg·mL^–1) in PBS buffer was added to each well and incubated for 4 h. The supernatant was removed and DMSO (150 μL) was added to solubilize the formazan crystals. The amount of formazan was determined using a microplate reader at 570 nm after the plates were shaken for 30 min. The optical density (OD) was used to calculate the percentage of viable cells relative to untreated control values. Background readings for MTT incubated in cell-free medium were subtracted from each value before calculation. […] The mean IC50 values were calculated using data from three replicates."}, "[6]": {"assay": "reduction by ascorbic acid (AsA) followed by 1H-/195Pt-NMR", "format": "physicochemical", "conditions": "20 mM, 8 equiv. AsA, 5:1 d6-DMSO:D2O, 37 °C, dark", "procedure": "Reduction of I and II. Samples were prepared by reacting I or II (20 mM) with 8 equiv. AsA in 5:1 d6-DMSO:D2O solutions. The time course of the reaction was monitored by ^1H-NMR and ^195Pt-NMR after incubation of the samples were incubated at 37 °C for 0, 3, 6, 12, 24, 36, 48, 60, 72, 84, 96, or 120 h in the dark."}, "BxPC3 cells": {"tested_on": "BxPC3 cells", "assay": "72 h MTT cytotoxicity, BxPC3", "format": "cell-based, human", "procedure": "as §1"}, "[7]": {"tested_on": "nuclear DNA of PANC-1 cells", "assay": "platination of cellular DNA by ICP-MS", "format": "cell-based, human", "conditions": "6 h", "procedure": "DNA platination. Cancer cells were seeded in 6-well plates at a density of 5×10^5 cells per well. After incubation at 37 °C for 24 h, the cells were treated with each complex for 6 h. The attached cells were harvested with trypsin and washed twice with PBS (4 °C). The cell pellets were lysed with the TIANamp Genomic DNA Kit. The DNA concentration was determined using NanoDrop spectrophotometer, and then the isolated DNA was digested with the same method mentioned above. The final Pt content was determined by ICP-MS."}}}
{"smiles": "COc1cc2cc(C(=O)CCC(=O)[O][Pt]([NH2])([NH2])([OH])([Cl])[Cl])sc2cc1OC", "note": "[conjugate I]", "values": [{"measurement": "frequencies of CD8 effector T, CD4 T and NK cells", "setting": "Pan02 tumors [1]", "value": "increased"}, {"measurement": "percentage of tumor cells", "setting": "Pan02 tumors [1]", "value": "decreased"}, {"measurement": "cellular Pt levels after preincubation with metabolic inhibitors (MIs)", "setting": "PANC-1 cells [2]; PANC-1, 5 μM, 6 h, 50 mM 2-deoxy-D-glucose and 5 μM oligomycin, versus no MI pretreatment", "value": "significantly decreased"}, {"measurement": "intracellular Pt levels after pretreatment with endocytosis inhibitor NH4Cl", "setting": "PANC-1 cells [2]; PANC-1, 5 μM, 6 h, 50 mM NH4Cl", "value": "did not significantly change"}, {"measurement": "fold increase of cellular Pt compared with CDDP", "setting": "PANC-1 cells [2]; PANC-1 cells, 6 h", "value": 92, "unit": "fold"}, {"measurement": "fold increase of cellular Pt compared with conjugate II", "setting": "PANC-1 cells [2]; PANC-1 cells, 6 h", "value": 68, "unit": "fold"}, {"measurement": "cellular Pt content", "setting": "PANC-1 cells [2]; PANC-1 cells, 6 h incubation, ICP-MS", "value": 155.7, "unit": "ng Pt/mg protein"}, {"measurement": "tumor volume", "setting": "Pan02 tumors [3]; C57BL/6 mice, Pan02 tumors, 10.0 μmol/kg every 2 days for 16 days, intravenous", "value": "106.3 ± 6.2", "unit": "mm^3"}, {"measurement": "tumor growth after cessation of treatment", "setting": "Pan02 tumors [3]; monitored another 6 days", "value": "substantially suppressed"}, {"measurement": "infiltration of CD8+ and CD4+ T cells", "setting": "[4]", "value": "slightly increased"}, {"measurement": "IC50", "setting": "PANC-1 cells [5]", "value": "0.06 ± 0.02", "unit": "µM"}, {"measurement": "time at which reduction by AsA finished", "setting": "[6]", "value": 24, "unit": "h"}, {"measurement": "IC50", "setting": "BxPC3 cells", "value": "0.02 ± 0.01", "unit": "µM"}, {"measurement": "platination of cellular DNA", "setting": "[7]", "value": "stronger than that by CDDP or conjugate II"}]}
